Assay [1] has as its system mice with bleomycin-induced pulmonary fibrosis. Kind of assay: HE staining pathomorphology and inflammatory score of bleomycin-induced pulmonary fibrosis. It counts as in vivo, C57BL/6 mice. The settings on record: Table 3 groups, 2 mg/kg i.p., after 28 days, grade 0-5. Here is the method: (§1) Male C57BL/6 mice were fasted overnight, then anesthetized with 45 mg/kg sodium pentobarbital by injection intraperitoneally (i.p.), and intratracheally injected with bleomycin at a dose of 3 U/kg. The specific operation steps are as follows: cut the neck skin of the mouse with as little trauma as possible, expose the trachea with the assistance of elbow ophthalmic forceps, puncture the trachea and inject about 50 μL of bleomycin into the trachea with a microsyringe, rotate the mouse quickly and stand it upright for 5 minutes in order to make bleomycin evenly enter the left and right lobe, thereby constructing an animal model. The whole operation was performed at a surgical table at about […]. Mice in the sham operation group were intratracheally injected with an equal amount of physiological saline for injection.
General tissue changes and tissue products can be visualized by HE staining method, namely Hematoxylin and Eosin staining method, which is the most commonly used staining method for morphology. Among them, hematoxylin dyeing solution is an alkaline dyeing solution, which mainly makes the chromatin in the nucleus and the ribosome in the cytoplasm purple blue; eosin is an acid dye, which mainly makes the components in the cytoplasm and extracellular matrix red. Pulmonary fibrosis models were made according to the method described in Example 2 and administered in groups according to Table 3. After 28 days, the right lower lobe of lung tissue of the experimental animals was taken, and fixed with 4% (v/v) paraformaldehyde and embedded in paraffin. Section was performed on the largest cross-section of the paraffin block in which the lung tissue embedded, and basic pathological changes was observed through HE staining. […] The administration of polypeptides S1-S11 can reduce lung inflammation caused by bleomycin, and effectively ameliorate lung injury and restore normal lung structure.
The inflammatory grading was observed according to the results of HE staining, and the criteria were as follows (grade 0-5): grade “0”: normal tissue; grade “1”: extremely small inflammatory changes; grade “2”: mild to moderate inflammatory changes without apparent destruction of lung tissue structure; grade “3”: moderate inflammatory injury (thickening of alveolar diaphragm); grade “4”: moderate to severe inflammatory injury with formation of tissue mass, or the normal structure of lung tissue was destroyed by localized pneumonia area; grade “5”: severe inflammatory injury, severe destruction of the localized lung tissue structure, resulting in closure of lumen.
Pulmonary fibrosis models were made according to the method described in Example 2 and administered in groups according to Table 9. After 28 days, the right lower lobe of lung tissue of the experimental animals was taken, and fixed by 4% (v/v) paraformaldehyde and embedded in paraffin. Section was performed on the largest cross-section of the paraffin block in which the lung tissue embedded, and basic pathological changes was observed through HE staining.

The target of another assay is T1, TRB3 protein (Homo sapiens, UniProt Q96RU7).
T1 construct: purchased RD
T1 sequence (Q96RU7 1-358): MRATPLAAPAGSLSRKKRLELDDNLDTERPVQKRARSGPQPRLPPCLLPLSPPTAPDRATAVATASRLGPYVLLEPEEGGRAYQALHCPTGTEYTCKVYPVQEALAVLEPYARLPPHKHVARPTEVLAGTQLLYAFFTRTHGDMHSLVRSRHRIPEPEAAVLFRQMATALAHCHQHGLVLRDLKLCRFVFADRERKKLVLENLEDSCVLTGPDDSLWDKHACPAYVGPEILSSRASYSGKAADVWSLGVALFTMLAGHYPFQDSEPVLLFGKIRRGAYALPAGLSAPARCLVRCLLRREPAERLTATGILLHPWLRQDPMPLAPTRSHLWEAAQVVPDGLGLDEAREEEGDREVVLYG
Kind of assay: Surface plasmon resonance (Biacore T200) binding of polypeptides to TRB3 protein. The settings on record: SPR, FIG. 4-1, 4-2 and Table 1. The procedure: The surface plasmon resonance experiment was carried out in a surface plasmon resonator Biacore T200, and the procedure was carried out in accordance with the instructions of the plasma resonator Biacore T200. Specific steps are as follows:
1. Purified TRB3 protein (purchased from RD) was coupled to a CMS chip (purchased from GE) by amidogen, and the unbound protein was eluted at a flow rate of 10 μL/min. The surface of the chip was equilibrated for 2 hours. Among them, the specific steps of amidogen coupling, elution and equilibration refer to the relevant instruction of GE's CMS chip.
2. 250 μL of the S1-S11 and MR2 polypeptide fragments prepared in Example 1 with different concentrations (800, 400, 200, 50, 12.5, 6.25, and 3.125 nM) were automatically injected, and the entire surface plasmon resonance experiment was carried out at 25° C. The buffer used was HBS-EP buffer [0.01 M HEPES, 0.15 M NaCl, 3 mM EDTA and 0.005% (w/w) surfactant TWEEN20]. Biacore T200's built-in analysis software was used to simulate the binding curves of different concentrations of peptides to TRB3.
For orientation: SPR reads the build-up and loss of mass on a sensor chip optically.

Assay [2] has as its system mice with bleomycin-induced pulmonary fibrosis. In words: Survival rate of mice with bleomycin-induced pulmonary fibrosis. As to conditions: Table 3 groups: 2 mg/kg i.p., 10th to 28th day after modeling, twice a week. It counts as in vivo, C57BL/6 mice. Here is the method: as §1
The animal model with pulmonary fibrosis was prepared according to the method described in Example 2. The peptide therapy was started from the 10th day after modeling (the treatment groups are shown in Table 3), and the time was calculated from the 10th day after modeling to count the mortality rate. The death situation of each group of experimental animals was counted and calculated daily. […] The survival rate is the percentage of the number of mice that survived accounting for the number of mice in the whole group. Results are shown in FIG. 6-1, FIG. 6-2 and Table 4. […] In FIG. 6-1 and FIG. 6-2, “##” represents that P value is less than 0.01 when the survival rate of administration group was compared with that of the sham operation group; “*” represents that P value is less than 0.05 when the survival rate of administration group was compared with that of the bleomycin group; “**” represents that P value is less than 0.01 when the survival rate of administration group was compared with that of bleomycin group; and “i.p.” refers to intraperitoneal injection.
The animal model of pulmonary fibrosis was prepared according to the method described in Example 2. The polypeptide treatment was started from the 10th day after modeling (the treatment groups are shown in Table 9), and the time was calculated from the 10th day after modeling to count the mortality rate. The mortality rate of each group of experimental animals was recorded and calculated daily. If none of the animals in a group died, the survival rate of the group is 100%. If all the animals in a group died, the survival rate is 0%. […] In FIG. 12, “##” represents that P value is less than 0.01 when the survival rate of the administration groups were compared with that of the sham operation group; “*” represents that P value is less than 0.05 and “**” represents that P value is less than 0.01 when the survival rate of the administration groups were compared with bleomycin group.

Bridge positions count the residues as written; N and C are the ends. Square brackets hold non-standard residues; d marks the D form. Peptide text beside a SMILES is read from it. S5 = C=CCCC[C@](C)(N)C(=O)O

Regarding `CSCC[C@@H]1NC(=O)[C@@](C)(NC(=O)[C@@H](N)Cc2c[nH]cn2)CCCC=CCCC[C@@](C)(C(=O)N[C@H](C(=O)N[C@@H](CS)C(=O)N[C@@H](C)C(=O)N[C@@H](CCCCN)C(=O)N[C@@H](CCCCN)C(=O)N[C@@H](CC(C)C)C(=O)N[C@@H](CCCCN)C(=O)N[C@@H](CCCCN)C(=O)N[C@@H](CCCNC(=N)N)C(=O)O)[C@@H](C)O)NC(=O)[C@H](CS)NC(=O)[C@H](C)NC1=O` [S2, His-S5-Met-Ala-Cys-S5-Thr-Cys-Ala-Lys-Lys-Leu-Lys-Lys-Arg] (H-H[S5]MAC[S5]TCAKKLKKR-OH; staple 2-6; N-terminus and C-terminus assumed), in assay [1], the Inflammatory score is given as 2.667. On TRB3 protein, the “interaction with the TRB3 protein (in words)” value (from here on “interaction”) is on record as “interacted with the TRB3 protein”. For the same compound, in assay [2], the “Survival rate (%) 7 days” value is given as 100%, the “Survival rate (%) 14 days” value was determined as 100%, the “Survival rate (%) 21 days” value was determined as 80% and the “Survival rate (%) 28 days” value was 80%.

As for `CC(C)C[C@H](NC(=O)[C@H](CCCCN)NC(=O)[C@H](CCCCN)NC(=O)[C@H](C)NC(=O)[C@H](CS)NC(=O)[C@]1(C)CCCC=CCCC[C@](C)(NC(=O)[C@H](CC(C)C)NC(=O)[C@@H](N)Cc2c[nH]cn2)C(=O)N[C@@H](C)C(=O)N[C@@H](CS)C(=O)N[C@@H](Cc2ccccc2)C(=O)N1)C(=O)N[C@@H](CCCCN)C(=O)N[C@@H](CCCCN)C(=O)N[C@@H](CCCNC(=N)N)C(=O)O` [S3, His-Leu-S5-Ala-Cys-Phe-S5-Cys-Ala-Lys-Lys-Leu-Lys-Lys-Arg] (H-HL[S5]ACF[S5]CAKKLKKR-OH; staple 3-7; N-terminus and C-terminus assumed), the Inflammatory score in assay [1] amounted to 2.5. In addition, the “interaction” value at TRB3 protein is “interacted with the TRB3 protein”. In addition, in assay [2], the “Survival rate (%) 7 days” value was determined as 100%, the “Survival rate (%) 14 days” value was determined as 93.33%, the “Survival rate (%) 21 days” value is 86.67% and the “Survival rate (%) 28 days” value was 86.67%.

`CSCC[C@H](NC(=O)[C@H](CC(C)C)NC(=O)[C@@H](N)Cc1c[nH]cn1)C(=O)N[C@@]1(C)CCCC=CCCC[C@@](C)(C(=O)N[C@@H](C)C(=O)N[C@@H](CCCCN)C(=O)N[C@@H](CCCCN)C(=O)N[C@@H](CC(C)C)C(=O)N[C@@H](CCCCN)C(=O)N[C@@H](CCCCN)C(=O)N[C@@H](CCCNC(=N)N)C(=O)O)NC(=O)[C@H]([C@@H](C)O)NC(=O)[C@H](Cc2ccccc2)NC(=O)[C@H](CS)NC1=O` [S4, His-Leu-Met-S5-Cys-Phe-Thr-S5-Ala-Lys-Lys-Leu-Lys-Lys-Arg] (H-HLM[S5]CFT[S5]AKKLKKR-OH; staple 4-8; N-terminus and C-terminus assumed) yielded an Inflammatory score in assay [1] of 2.833. In addition, the “interaction” value on TRB3 protein is on record as “interacted with the TRB3 protein”. For the same compound, in assay [2], the “Survival rate (%) 7 days” value came to 100%, the “Survival rate (%) 14 days” value was 86.67%, the “Survival rate (%) 21 days” value is on record as 80% and the “Survival rate (%) 28 days” value turned out to be 80%.

For the compound `CSCC[C@H](NC(=O)[C@H](CC(C)C)NC(=O)[C@@H](N)Cc1c[nH]cn1)C(=O)N[C@@H](C)C(=O)N[C@@]1(C)CCCC=CCCC[C@@](C)(C(=O)N[C@@H](CCCCN)C(=O)N[C@@H](CCCCN)C(=O)N[C@@H](CC(C)C)C(=O)N[C@@H](CCCCN)C(=O)N[C@@H](CCCCN)C(=O)N[C@@H](CCCNC(=N)N)C(=O)O)NC(=O)[C@H](CS)NC(=O)[C@H]([C@@H](C)O)NC(=O)[C@H](Cc2ccccc2)NC1=O` [S5, His-Leu-Met-Ala-S5-Phe-Thr-Cys-S5-Lys-Lys-Leu-Lys-Lys-Arg] (H-HLMA[S5]FTC[S5]KKLKKR-OH; staple 5-9; N-terminus and C-terminus assumed), the Inflammatory score in assay [1] amounted to 2.333. The “interaction” value on TRB3 protein is on record as “interacted with the TRB3 protein”. For the same compound, in assay [2], the “Survival rate (%) 7 days” value is 100%, the “Survival rate (%) 14 days” value is recorded as 100%, the “Survival rate (%) 21 days” value is 93.33% and the “Survival rate (%) 28 days” value came to 93.33%.

Values taken from patent US20210179680A1, “POLYPEPTIDE, DERIVATIVES THEREOF, AND APPLICATION THEREOF IN PREPARATION OF DRUGS HAVING RESISTANCE TO PULMONARY FIBROSIS” (priority 2016, published 2021).
